How the values were obtained:
[1] = molecular target: human HSP90 alpha protein (N-terminal, amino acids 2 to 236) (Homo sapiens (Human), UniProt P07900); assay: Determination of HSP90-binding activity (AlphaScreen competitive assay with biotinylated geldanamycin); settings: inhibition of binding of biotinylated geldanamycin to purified HSP90 N-terminal protein, read-out: HSP-binding activity IC50
Procedure: First, a purified HSP90 solution was prepared as follows: a human HSP90 alpha gene (NCBI Reference Sequence accession no. NM-005348) region corresponding to amino acids 2 to 236 of human HSP90 alpha protein (NCBI Reference Sequence accession no. NP-005339; full length: 732 amino acids) was inserted to pET-19b (Novagen; Merck KGaA) to construct a plasmid pET-HS[…] for expression of the HSP90 N-terminal protein having a His-tag at the N-terminus. E. coli (BL21(DE3), Stratagene Corp.) was transformed with pET-HS[…] and then cultured at 37° C. for 4 hours in the presence of 0.5 mM isopropyl-beta-D-thiogalactopyranoside (Sigma-Aldrich Corp.). The collected E. coli was suspended in a lysis buffer (50 mM Tris-HCl (pH 7.5), 200 mM NaCl) and sonicated. The sonicated cell solution was centrifuged (40,000×g, 20 minutes), and the supernatant was used as a crude extract. This crude extract was fractionated using Ni Sepharose High Performance (GE Healthcare Japan Corp.) chromatography and HiLoad 26/60 Superdex 75 pg (GE Healthcare Japan Corp.). Then, a fraction of HSP90 protein concentrates was prepared in a solution containing 50 mM Tris-HCl (pH 7.5) and 20% glycerol as a purified HSP90 solution. The purified HSP90 solution was divided and stored at -80° C. until use. HSP90-binding activity was determined by an AlphaScreen competitive assay system. […] After reaction at room temperature for 2 hours, biotinylated geldanamycin was added thereto at a concentration of 40 nM/well and further reacted for 1 hour. Detection mix (20 mM HEPES-KOH (pH 7.5), 0.5% BSA, 0.04 mg/mL Nickel Chelate Acceptor beads, 0.04 mg/mL Streptavidin-coated Donor beads) (#6760619C, PerkinElmer, Inc.) was added to each well in an amount equal to the amount of the reaction solution and reacted at room temperature for 1 hour in the dark. Then, fluorescence intensity was measured using Multilabel Plate Reader EnVision (PerkinElmer, Inc.). Percent inhibition (%) of the binding of biotinylated geldanamycin by each compound of the present invention was determined according to the formula shown below with the fluorescence signal of no test substance addition group as a control. […] Percent inhibition (%)=(C-T)/C×100, wherein T: Signal of well with test substance addition C: Signal of well without test substance addition.

[2] = test system: SK-BR-3 cells; assay: Determination of cell growth inhibition (crystal violet staining method); format: cell-based; settings: Homo sapiens; breast cancer cells SK-BR-3, 72 hours culture with test substance
Procedure: Cell growth was assayed by a crystal violet staining method. SK-BR-3 cells (HTB-30) purchased from American Type Culture Collection were inoculated at a concentration of 5,000 cells/well to a 96-well plate (#353075, BD Biosciences). After culture at 37° C. for 24 hours in a 5% CO2 incubator, each test substance was added thereto, and the cells were further cultured for 72 hours. A 25% glutaraldehyde solution (#17025-25, Nacalai Tesque, Inc.) was added thereto at a concentration of 20 μL/well per 200 μL of the medium, and the plate was incubated at room temperature for 20 minutes to fix the cells. The plate was washed with water and dried. Then, a solution containing 0.05% crystal violet (#038-17792, Wako Pure Chemical Industries, Ltd.) and 20% methanol was added thereto at a concentration of 100 μL/well, and the plate was incubated at room temperature for 20 minutes to stain the cells. The plate was washed with water and dried. A mixed solution of 0.05 M NaH2PO4 and ethanol (mixed in equal amounts) was added thereto at a concentration of 100 μL/well. Absorbance was measured at 540 nm using a microplate reader (MTP-450, Corona Electric Co., Ltd.) and used as an index for the number of cells per well. Percent inhibition (%) of cell growth by each compound of the present invention was determined according to the formula shown below with the absorbance of no drug addition group as a control. […] Percent inhibition (%)=(C−T)/C×100, wherein T: Absorbance of well with test substance addition C: Absorbance of well without test substance addition.

SMILES | IC50 [1] [nM] | IC50 [2] [nM]
NC(=O)c1ccc(-c2cccc3c(-c4cnc5ccccc5c4)nccc23)cc1NC1CCC(O)CC1 (centres unmarked) [Comp. Ex. 1, 2-(4-Hydroxycyclohexylamino)-4-(1-(quinolin-3-yl)isoquinolin-5-yl)benzamide, reference compound] | > 100000 | 8420
NC(=O)c1ccc(-c2cccc3c(-c4cnc5ccccc5c4)ncnc23)cc1NC1CCC(O)CC1 (centres unmarked) [Comp. Ex. 2, 2-(4-Hydroxycyclohexylamino)-4-(4-(quinolin-3-yl)quinazolin-8-yl)benzamide, reference compound] | > 100000 | > 10000
Cn1cc(-c2cn(-c3cccc4c(-c5ccc(C(N)=O)c(N)c5)nc(C(F)(F)F)nc34)cn2)cn1 [Example 4, 2-Amino-4-(8-(4-(1-methyl-1H-pyrazol-4-yl)-1H-imidazol-1-yl)-2-(trifluoromethyl)quinazolin-4-yl)benzamide] | 340 | 280
CC(C)(C)Nc1cc(-c2cc(C(F)(F)F)nc3c(-c4cnc5ccccc5c4)cccc23)ccc1C(N)=O [Example 5, 2-(Tert-butylamino)-4-(2′-(trifluoromethyl)-3,8′-biquinolin-4′-yl)benzamide] | 1440 | 90
NC(=O)c1ccc(-c2nccc3c(-c4cnc5ccccc5c4)cccc23)cc1NC1CCC(O)CC1 (centres unmarked) [Example 6, 2-(4-Hydroxycyclohexylamino)-4-(5-(quinolin-3-yl)isoquinolin-1-yl)benzamide] | 170 | 30
Cc1cc2c(-c3cnc4ccccc4c3)cccc2c(-c2ccc(C(N)=O)c(NC3CCC(O)CC3)c2)[n+]1[O-] (centres unmarked) [Example 8, 1-(4-Carbamoyl-3-(4-hydroxycyclohexylamino)phenyl)-3-methyl-5-(quinolin-3-yl)isoquinoline-2-oxide] | 100 | 20
Cc1ccc2cc(-c3cccc4c(-c5ccc(C(N)=O)c(NC6CCC(O)CC6)c5)nccc34)cnc2c1 (centres unmarked) [Example 11, 2-(4-Hydroxycyclohexylamino)-4-(5-(7-methylquinolin-3-yl)isoquinolin-1-yl)benzamide] | 480 | 110
NC(=O)c1ccc(-c2nccc3c(-c4cnc5nccnc5c4)cccc23)cc1NC1CCC(O)CC1 (centres unmarked) [Example 13, 2-(4-Hydroxycyclohexylamino)-4-(5-(pyrido[2,3-b]pyrazin-7-yl)isoquinolin-1-yl)benzamide] | 450 | 580
NC(=O)c1ccc(-c2nccc3c(-c4cccnc4)cccc23)cc1NC1CCC(O)CC1 (centres unmarked) [Example 15, 2-(4-Hydroxycyclohexylamino)-4-(5-(pyridin-3-yl)isoquinolin-1-yl)benzamide] | 140 | 210
COc1cncc(-c2cccc3c(-c4ccc(C(N)=O)c(NC5CCC(O)CC5)c4)nccc23)c1 (centres unmarked) [Example 24, 2-(4-Hydroxycyclohexylamino)-4-(5-(5-methoxypyridin-3-yl)isoquinolin-1-yl)benzamide] | 650 | 690
NC(=O)c1ccc(-c2nccc3c(-n4cnc(-c5ccncc5)c4)cccc23)cc1NC1CCC(O)CC1 (centres unmarked) [Example 25, 2-(4-Hydroxycyclohexylamino)-4-(5-(4-(pyridin-4-yl)-1H-imidazol-1-yl)isoquinolin-1-yl)benzamide] | 130 | 110
NC(=O)c1ccc(-c2nccc3c(-n4cnc(-c5cccnc5)c4)cccc23)cc1NC1CCC(O)CC1 (centres unmarked) [Example 32, 2-(4-Hydroxycyclohexylamino)-4-(5-(4-(pyridin-3-yl)-1H-imidazol-1-yl)isoquinolin-1-yl)benzamide] | 80 | 20

Continued, values first:

IC50 [1] [nM] | IC50 [2] [nM] | SMILES
> 100000 | 7630 | CCNc1cc(-c2cccc3c(-n4cnc(-c5cnn(C)c5)c4)nccc23)ccc1C(N)=O [Comp. Ex. 3, 2-(Ethylamino)-4-(1-(4-(1-methyl-1H-pyrazol-4-yl)-1H-imidazol-1-yl)isoquinolin-5-yl)benzamide, reference compound]
190 | 10 | CCNc1cc(-c2cc(C(F)(F)F)nc3c(-n4cnc(-c5cnn(C)c5)c4)cccc23)ccc1C(N)=O [Example 3, 2-(Ethylamino)-4-(8-(4-(1-methyl-1H-pyrazol-4-yl)-1H-imidazol-1-yl)-2-(trifluoromethyl)quinolin-4-yl)benzamide]
150 | 10 | Cc1cc2c(-c3cnc4ccccc4c3)cccc2c(-c2ccc(C(N)=O)c(NC3CCC(O)CC3)c2)n1 (centres unmarked) [Example 7, 2-(4-Hydroxycyclohexylamino)-4-(3-methyl-5-(quinolin-3-yl)isoquinolin-1-yl)benzamide]
270 | 50 | Cc1ccc2ncc(-c3cccc4c(-c5ccc(C(N)=O)c(NC6CCC(O)CC6)c5)nccc34)cc2c1 (centres unmarked) [Example 9, 2-(4-Hydroxycyclohexylamino)-4-(5-(6-methylquinolin-3-yl)isoquinolin-1-yl)benzamide]
70 | 170 | NC(=O)c1ccc(-c2nccc3c(-c4cnc5nc[nH]c5c4)cccc23)cc1NC1CCC(O)CC1 (centres unmarked) [Example 12]
1500 | 340 | NC(=O)c1ccc(-c2nccc3c(-c4cnc5[nH]ccc5c4)cccc23)cc1NC1CCC(O)CC1 (centres unmarked) [Example 14, 4-(5-(1H-Pyrrolo[2,3-b]pyridin-5-yl)isoquinolin-1-yl)-2-(4-hydroxycyclohexylamino)benzamide]
100 | 280 | NC(=O)c1ccc(-c2nccc3c(-c4cncc(CO)c4)cccc23)cc1NC1CCC(O)CC1 (centres unmarked) [Example 17, 2-(4-Hydroxycyclohexylamino)-4-(5-(5-(hydroxymethyl)pyridin-3-yl)isoquinolin-1-yl)benzamide]
2690 | 880 | CC(C)(C)OC(=O)NCCc1cncc(-c2cccc3c(-c4ccc(C(N)=O)c(NC5CCC(O)CC5)c4)nccc23)c1 (centres unmarked) [Example 19, Tert-butyl 2-(5-(1-(4-carbamoyl-3-(4-hydroxycyclohexylamino)phenyl)isoquinolin-5-yl)pyridin-3-yl)ethylcarbamate]
150 | 540 | CC(=O)Nc1cncc(-c2cccc3c(-c4ccc(C(N)=O)c(NC5CCC(O)CC5)c4)nccc23)c1 (centres unmarked) [Example 27, 4-(5-(5-Acetamidepyridin-3-yl)isoquinolin-1-yl)-2-(4-hydroxycyclohexylamino)benzamide]
230 | 500 | NC(=O)c1ccc(-c2nccc3c(-c4cncc(NC(=O)CO)c4)cccc23)cc1NC1CCC(O)CC1 (centres unmarked) [Example 28, 4-(5-(5-(2-Hydroxyacetamide)pyridin-3-yl)isoquinolin-1-yl)-2-(4-hydroxycyclohexylamino)benzamide]
800 | 580 | NC(=O)c1ccc(-c2nc(CN3CCOCC3)cc3c(-c4cnc5ccccc5c4)cccc23)cc1NC1CCC(O)CC1 (centres unmarked) [Example 31, 2-(4-Hydroxycyclohexylamino)-4-(3-(morpholinomethyl)-5-(quinolin-3-yl)isoquinolin-1-yl)benzamide]
100 |  | Cn1cc(-c2cn(-c3cccc4c(-c5ccc(C(N)=O)c(N)c5)cc(C5CC5)nc34)cn2)cn1 [Example 106, 2-Amino-4-(2-cyclopropyl-8-(4-(1-methyl-1H-pyrazol-4-yl)-1H-imidazol-1-yl)quinolin-4-yl)benzamide]

Reference: patent US8912181B2 (Taiho Pharmaceutical Co., Ltd., priority 2011, dated 2014)
